Experimental data: patent publication US11104631B1, “Isopentenyl chalcone compound and preparation method thereof” (SOUTH CHINA BOTANICAL GARDEN, CHINESE ACADEMY OF SCIENCES, priority 2018, dated 2021)

Experiments:
[1] = DPPH radical scavenging assay; format: biochemical; settings: 0.2 mM DPPH in ethanol, dark, room temperature, 30 minutes, absorbance at 517 nm; read-out: IC50 value against DPPH radicals
Method: DPPH is a stable free radical. When a free radical scavenger is present, light absorption of DPPH will be reduced when the single electron is scavenged, which allows to evaluate free radical scavenging ability of the substance and accordingly determine antioxidant ability thereof. The DPPH radical scavenging ability of the compound 2,2′,4,4′-tetrahydroxy-3′-(2″,3″-dihydroxy-3″-methylbutyl)chalcone was measured through the DPPH radical scavenging assay, so as to evaluate the antioxidant ability of the compound. The assay comprised the following steps: 1,1-Diphenyl-2-picrylhydrazyl (DPPH) was dissolved in absolute ethanol to obtain a solution with a concentration of 0.2 mM. The compound 2,2′,4,4′-tetrahydroxy-3′-(2″,3″-dihydroxy-3″-methylbutyl)chalcone was dissolved in absolute ethanol. 80 μL of the ethanol solution of 2,2′,4,4′-tetrahydroxy-3′-(2″,3″-dihydroxy-3″-methylbutyl)chalcone and 160 μL of the 0.2 mM DPPH ethanol solution were mixed and the mixture was placed in dark at room temperature for 30 minutes. Then, light absorbance at 517 nm was measured using a microplate reader (SpectraMax 190, Molecular Devices, USA), and Vc was employed as a positive control.

[2] = Solubility in methanol; format: physicochemical

Row | Structure (SMILES) | IC50 [1] [µM] | solubility in methanol [2]
1 | O=C1O[C@H]([C@@H](O)CO)C(O)=C1O [Vc, vitamin C, reference compound] | 100 | 
2 | CC(C)(O)C(O)Cc1c(O)ccc(C(=O)/C=C/c2ccc(O)cc2O)c1O (stereo not drawn) [compound 1, 2,2′,4,4′-tetrahydroxy-3′-(2″,3″-dihydroxy-3″-methylbutyl)chalcone] | 27.6 | easily soluble in methanol
